Here are results for six compounds from patent publication US20240391954A1, “MC4R AGONIST PEPTIDES” (The Regents of the University of Michigan, priority 2021, published 2024).

The nature of series [1]: Mouse plasma stability. The settings on record: 37° C.; for half-life at 1 µM: pooled mouse plasma. Format: in vitro ADME. The protocol: FIG. 3. Results of plasma stability testing for control peptides. Compounds shown were incubated in mouse plasma at 37° C. at 1 μM concentrations. 40 ul aliquots were removed at the times indicated and the reactions stopped with the addition of 160 μL cold acetonitrile containing 200 ng/ml of peptide internal standard (IS). The incubation solution was centrifuged at 3500 rpm for 10 minutes to precipitate protein. LC/MS/MS analysis was used to determine the % peptide remaining.
Pooled mouse plasma was prepared and stored at −80° C, prior to use, 396 μL mouse plasma was incubated at 37° C. for 5 minutes in 1.5 mL microcentrifuge tubes. 4 μL of 100 μM test or control compound/peptide was added to each tube and incubated for 0.5, 15, 30, 60, 120, or 240 minutes. An aliquot of 40 μL of each reaction was stopped by the addition of 4 volume of cold acetonitrile containing 200 ng/mL of […] solution was centrifuged at 3500 rpm for 10 minutes to precipitate protein. The supernatant was used for LC/MS/MS analysis. The natural log peak area ratio (compound peak area/internal standard peak area) was plotted against time and the gradient of the line determined.

Series [2] deals with T1, human MC1R (Homo sapiens, UniProt Q01726).
T1 construct: expressed in transfected cells; host or cells: HEK-293 cells stably expressing hMC1R and the GScAMP22F cAMP sensor
Description: split-luciferase cAMP sensor assay, agonist mode, hMC1R. The format is cell-based. As to conditions: MC4R versus MC1R. In short, it runs like this: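 HEK-293 cells stably expressing hMC1R and the GScAMP22F split-luciferase cAMP sensor, preloaded 120 min at 37° C with D-luciferin in serum-free medium. Peptide responses were taken as peak luminescence over 2-13 min minus 2-min baseline, normalized to the α-MSH ECmax. EC50 was obtained from a four-parameter variable-slope fit.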

Series [3] concerns the target T2, human MC4R (Homo sapiens, UniProt P32245).
T2 construct: host or cells: HEK-293 cells stably expressing the GScAMP22F split-luciferase cAMP sensor and hMC4R, G418 selection
As to the kind of experiment: split-luciferase cAMP sensor assay, agonist mode (measurement window 1), hMC4R. Format: cell-based. The settings on record: for Emax / pEC50: agonist mode; for Emax: read-out: MC4R cAMP % max activation; for pEC50: read-out: MC4R cAMP EC50. In outline: (§1)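 EC50 values come from a four-parameter variable-slope fit of luminescence in measurement window 1, capturing direct peptide effects on receptor-expressing cells with a cAMP22f luciferase sensor. Cells were preloaded with 4% D-luciferin, serum-free medium; 20 μM forskolin normalized for cell number and transducer efficiency.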

The target in series [4] is T3, human MC3R (Homo sapiens, UniProt P41968).
T3 construct: expressed in transfected cells; host or cells: HEK-293 cells stably expressing the GScAMP22F split-luciferase cAMP sensor (parent reporter line from Promega); MC3R clone generated in-house, G418 selection
Description: split-luciferase cAMP sensor assay, agonist mode (measurement window 1), hMC3R. As to conditions: for Emax: read-out: MC3R cAMP % max activation; for MC4R selectivity vs MC3R: MC4R versus MC3R. The format is cell-based. In outline:
as §1

Series [5] in a line: Plasma protein binding (Centrifree ultrafiltration). The format is in vitro ADME. The protocol:
Solutions of test compound in DMSO were prepared at 1 mM, 100 uM and 10 uM, 5 ul of each solution of test compound was added to 495 uL plasma, and incubated at 25° C. for 5 min. Sample was added to a Centrifree® device, then centrifuged at 2000× g for 20 min to obtain desired filtrate volume. Initial plasma samples and ultrafiltrates were subjected to LC-MS/MS. % Free peptide=(concentration of ultrafiltrates/concentration of plasma)×100%. % Bound=100%−% Free

The mark [6] stands for this setting: % maximal activation, agonist mode.
[7] abbreviates: agonist mode, hMC3R stable cell line.
Where [8] appears, read: 1.0 uM, read-out: Protein Binding 1.0 uM (converted).
The mark [9] stands for this setting: 10.0 uM, read-out: Protein Binding 10.0 uM (converted).

pEC50: −log10 of the molar value. Read-outs that look alike come from different tables or passages of the source. Positions of bridges follow the written chain, without caps; N, C: chain ends. Non-standard residues stand in square brackets, D forms with d. Residues, ends and D or L forms follow the SMILES beside them. dPhe(4-Br) = N[C@H](Cc1ccc(Br)cc1)C(=O)O; dPhe(4-F) = N[C@H](Cc1ccc(F)cc1)C(=O)O; Nle = CCCC[C@H](N)C(=O)O

For orientation: half-life means the time in which the quantity being followed falls by half. A higher half-life goes with slow decline. What is called pEC50 is −log10 of the EC50, conventionally taken in molar units.

T1 sequence (Q01726 whole entry): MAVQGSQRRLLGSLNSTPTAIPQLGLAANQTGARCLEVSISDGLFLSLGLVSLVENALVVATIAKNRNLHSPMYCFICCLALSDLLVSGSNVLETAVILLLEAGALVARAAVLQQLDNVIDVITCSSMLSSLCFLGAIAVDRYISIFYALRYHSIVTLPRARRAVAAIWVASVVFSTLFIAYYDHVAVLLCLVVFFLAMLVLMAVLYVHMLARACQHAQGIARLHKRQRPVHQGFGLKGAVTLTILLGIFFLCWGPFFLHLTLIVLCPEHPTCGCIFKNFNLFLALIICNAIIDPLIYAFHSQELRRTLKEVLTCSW
T3 sequence (P41968 whole entry): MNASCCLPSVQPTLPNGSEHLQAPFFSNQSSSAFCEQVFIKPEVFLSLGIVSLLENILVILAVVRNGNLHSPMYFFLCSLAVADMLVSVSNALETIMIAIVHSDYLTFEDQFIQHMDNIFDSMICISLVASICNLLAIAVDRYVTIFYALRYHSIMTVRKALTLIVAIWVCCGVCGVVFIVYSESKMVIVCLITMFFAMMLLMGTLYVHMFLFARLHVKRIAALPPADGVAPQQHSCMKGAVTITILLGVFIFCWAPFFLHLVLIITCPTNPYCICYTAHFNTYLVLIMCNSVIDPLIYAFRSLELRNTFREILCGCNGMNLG
T2 sequence (P32245 whole entry): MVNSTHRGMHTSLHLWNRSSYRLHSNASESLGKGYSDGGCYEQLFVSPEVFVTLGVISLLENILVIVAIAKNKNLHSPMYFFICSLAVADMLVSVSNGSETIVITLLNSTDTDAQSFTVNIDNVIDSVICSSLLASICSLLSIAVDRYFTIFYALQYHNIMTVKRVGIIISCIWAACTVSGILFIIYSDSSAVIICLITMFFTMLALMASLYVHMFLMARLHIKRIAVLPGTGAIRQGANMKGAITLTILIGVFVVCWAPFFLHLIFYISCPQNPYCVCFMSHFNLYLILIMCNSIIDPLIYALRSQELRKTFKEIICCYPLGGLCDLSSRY

Turning to `CC(=O)N[C@@H](CCCNC(=N)N)C(=O)N[C@H]1CSSC[C@@H](C(N)=O)NC(=O)[C@H](Cc2c[nH]c3ccccc23)NC(=O)[C@H](CCCNC(=N)N)NC(=O)[C@@H](Cc2ccccc2)NC(=O)[C@H](CCCNC(N)=O)NC(=O)[C@@H](C)NC1=O` [CTX-1285, Arg-cyclo(Cys-D-Ala-Cit-D-Phe-Arg-Trp-Cys)], the half-life at 1 µM in series [1] was over 4 h. The “MC4R selectivity vs MC1R” value in series [2] was determined as 134. The Emax in series [3] (% maximal activation) stood at 94%; in series [4] (setting [6]), 28%. For the same compound, the pEC50 in series [3] (HEK-293 cells stably expressing hMC4R) is 8.77. Further, in series [4], the “MC4R selectivity vs MC3R” value worked out at 2.9. Moreover, the fraction unbound at 5 min, 0.1 µM in series [5] is 0.55. The fraction unbound at 5 min, 1 µM in series [5] (1.0 uM) is 0.61. Also, the fraction unbound at 5 min, 10 µM in series [5] (10.0 uM) is 0.59.
Compound `CC(=O)N[C@@H](CCCNC(=N)N)C(=O)N[C@H]1CSSC[C@@H](C(N)=O)NC(=O)[C@@H](Cc2c[nH]c3ccccc23)NC(=O)[C@H](CCCNC(=N)N)NC(=O)[C@@H](Cc2ccc(F)cc2)NC(=O)[C@H](CCCNC(=N)N)NC(=O)[C@@H](C)NC1=O` [CTX-1236, Arg-cyclo(Cys-D-Ala-Arg-D-Phe(4-F)-Arg-D-Trp-Cys)] (Ac-RC[dA]R[dPhe(4-F)]R[dW]C-NH2; disulfide 2-8) displayed a half-life in series [1] of 3.78 h. Also, in series [3], the “MC4R selectivity vs MC1R” value stood at 2.01 and the “MC4R selectivity vs MC3R” value turned out to be 1.36. Also, in series [3] (hMC4R stable cell line), the Emax was found to be 97% and the pEC50 was 8.72. Also, the Emax in series [4] (setting [7]) stood at 66%. In series [5], this compound had a fraction unbound at 0.1 uM of 0.55. The fraction unbound in series [5] (setting [8]) is 0.51. Also, the fraction unbound in series [5] (setting [9]) was 0.49.
Consider `CC(=O)N[C@@H](CCCNC(=N)N)C(=O)N[C@H]1CSSC[C@@H](C(N)=O)NC(=O)[C@H](Cc2c[nH]c3ccccc23)NC(=O)[C@H](CCCNC(=N)N)NC(=O)[C@@H](Cc2ccccc2)NC(=O)[C@H](CCCNC(=N)N)NC(=O)[C@@H](C)NC1=O` [CTX-1211, Arg-cyclo(Cys-D-Ala-Arg-D-Phe-Arg-Trp-Cys)] (Ac-RC[dA]R[dF]RWC-NH2; disulfide 2-8 (inferred)), for which, in series [1], the half-life at 1 µM was over 3 h. The “MC4R selectivity vs MC1R” value in series [2] is 3.12. Also, the Emax was 96% in series [3] (% maximal activation) and 91% in series [4] (setting [6]). In addition, the “MC4R selectivity vs MC3R” value in series [4] stood at 5.49. Also, the fraction unbound at 5 min, 0.1 µM in series [5] was 0.49. In series [5] (1.0 uM), this compound gave a fraction unbound at 5 min, 1 µM of 0.37. The same compound gave a fraction unbound at 5 min, 10 µM in series [5] (10.0 uM) of 0.39.
Regarding `CC(=O)N[C@@H](CCCNC(=N)N)C(=O)N[C@H]1CSSC[C@@H](C(N)=O)NC(=O)[C@@H](Cc2c[nH]c3ccccc23)NC(=O)[C@H](CCCNC(=N)N)NC(=O)[C@@H](Cc2ccccc2)NC(=O)[C@H](CCCNC(=N)N)NC(=O)[C@H](C)NC1=O` [CTX-1268, Arg-cyclo(Cys-Ala-Arg-D-Phe-Arg-D-Trp-Cys)] (Ac-RCAR[dF]R[dW]C-NH2; disulfide 2-8), in series [1], the half-life turned out to be 1.75 h. Besides, in series [2], the “MC4R selectivity vs MC1R” value turned out to be 6.59. The Emax is 96% in series [3] (% maximal activation) and 44% in series [4] (setting [6]). Moreover, the “MC4R selectivity vs MC3R” value in series [4] is on record as 30. In series [5], this compound had a fraction unbound at 0.1 uM of 0.48. The fraction unbound in series [5] (setting [8]) is 0.42; in series [5] (setting [9]), 0.38.
In series [1], `CC(=O)N[C@@H](CCCNC(=N)N)C(=O)N[C@H]1CSSC[C@@H](C(N)=O)NC(=O)[C@H](Cc2ccccc2)NC(=O)[C@H](CCCNC(=N)N)NC(=O)[C@@H](Cc2ccc(Br)cc2)NC(=O)[C@H](CCCNC(=N)N)NC(=O)[C@@H](C)NC1=O` [CTX-1258, Arg-cyclo(Cys-D-Ala-Arg-D-Phe(4-Br)-Arg-Phe-Cys)] (Ac-RC[dA]R[dPhe(4-Br)]RFC-NH2; disulfide 2-8) showed a half-life at 1 µM of over 4 h. Further, in series [3], the “MC4R selectivity vs MC1R” value came to 0.53 and the “MC4R selectivity vs MC3R” value turned out to be 3.04. Besides, in series [3] (hMC4R stable cell line), the Emax was 92% and the pEC50 is 8.62. For the same compound, the Emax in series [4] (setting [7]) was determined as 36%. The fraction unbound at 5 min, 0.1 µM in series [5] was 0.53. Moreover, the fraction unbound at 5 min, 1 µM in series [5] (1.0 uM) was 0.5. In series [5] (10.0 uM), the fraction unbound at 5 min, 10 µM came to 0.5.
`CCCC[C@H](NC(=O)[C@H](CCCNC(=N)N)NC(C)=O)C(=O)N[C@H]1CSSC[C@@H](C(N)=O)NC(=O)[C@H](Cc2c[nH]c3ccccc23)NC(=O)[C@H](CCCNC(=N)N)NC(=O)[C@@H](Cc2ccccc2)NC(=O)[C@H](CCCNC(=N)N)NC1=O` [CTX-1228, Arg-Nle-cyclo(Cys-Arg-D-Phe-Arg-Trp-Cys)] (Ac-R[Nle]CR[dF]RWC-NH2; disulfide 3-8 (inferred)) showed a half-life at 1 µM in series [1] of 0.917 h. Also, the “MC4R selectivity vs MC1R” value in series [2] is on record as 3.16. Further, the Emax stood at 102% in series [3] (% maximal activation) and 93% in series [4] (setting [6]). Besides, in series [4] (HEK-293 cells stably expressing hMC3R, agonist mode, read-out: MC3R cAMP EC50), the pEC50 is 8.80. Also, in series [4], the “MC4R selectivity vs MC3R” value stood at 8.38. In series [5], this compound had a fraction unbound at 5 min, 0.1 µM of 0.63. Further, in series [5] (1.0 uM), the fraction unbound at 5 min, 1 µM is 0.61. The fraction unbound at 5 min, 10 µM in series [5] (10.0 uM) was 0.61.
